Laboratory results as given in US20100234323A1, “Antimicrobial Acids and Salts” (priority 2006, published 2010).
“And” between values parts separate entries of the source, which are not always exact repeats. Equal entries are not always repeated.

Experiments:
S. aureus ATCC 6538 = experiment: Antibacterial efficacy on treated polypropylene non-woven, modified AATCC-100; type: cell-based, Staphylococcus aureus
Method: (§1) A solution of Example 1 in a solvent (tetrahydrofurane and/or acetone) is prepared with a concentration of 1 or 2% of the compound of Example 1. This solution is sonicated for 1 min to ensure complete dissolution of the test acid compound. Then polypropylene non-woven (10×10 cm) is dipped into the solution (100 ml) and left under sonication for 1 min. The non-woven is taken out of the solution and dried on air at room temperature for some hours. This non-woven is then used for microbial testing as follows:
(§2) The efficacy of Example 1 is tested after application onto polypropylene non-woven material according to a modified AATCC-100 standard for assessing antibacterial activity on textiles. Overnight cultures of two test bacteria are contacted with the treated non-woven material by pipetting a diluted suspension onto the surface of the material. The non-woven is then incubated for 24 hours at 37° C., and then the cell count is determined by elution of the materials into a neutralizing medium, dilution series and plate count technique. As in the basic test for microbicidal activity (Example 6), Staphylococcus aureus is used as the gram+ and Escherichia coli as the gram-organism.
(§3) The results are given in tables (f) and (g) as cell count directly after inoculation and after 24 hours incubation time in comparison to an untreated polypropylene non-woven as the blank.

[1] = tested on: Escherichia coli (ATCC 10535); experiment: Microbicidal activity, European Standard EN1040 suspension test; type: cell-based; conditions: for E. coli cfu/mL (residual cell count): room temperature
Method: (§4) Microbicidal activity of different anionic siloxanes with carboxyl groups is tested according to European Standard EN1040. A bacterial suspension with a cell count of about 10^7 cfu/ml (cfu stands for colony-forming units) is contacted with appropriate concentrations of the specific substances and the residual cell count is determined after incubation times of 5 and 30 min. at room temperature under continuos stirring. Staphylococcus aureus (ATCC 5638, American Type Culture Collection, Manassas, USA) is tested as gram+ (gram positive) and Escherichia coli (ATCC 10535, American Type Culture Collection) as gram-organism. The results are given as a log reduction at each incubation time in comparison to a water control in the following tables (a) and (b): […]

[2] = tested on: Staphylococcus aureus (ATCC 5638); experiment: as above; type: cell-based; conditions: for S. aureus cfu/mL (residual cell count): room temperature
Method: as §4

[3] = tested on: Staphylococcus aureus cells; experiment: Antiadhesive efficacy on coated PMMA test specimen, antibody colorimetric assay; type: cell-based; conditions: specimen coated from 0.50% solution in EtOH; S. aureus suspension 1 hour at 30°
Method: The antiadhesive efficacy (inhibition of adhesion of microorganisms) is tested after temporarily attaching various compounds to PMMA test specimen by incubation of the test specimen in a 0.5% solution in ethanol. The coated specimen are then dried and afterwards incubated in a suspension of Staphylococcus aureus cells for 1 hour at 30° under shaking. After some washing steps, the attached cells are detected via binding of a primary antibody and—after incubation of night and again washing steps—binding of a secondary antibody with alkaline phosphatase attached. The adhesion is then determined in a colorimetric assay in comparison to an untreated PMMA test specimen, which is calculated as showing 100% adhesion.

E. coli ATCC 10536 = experiment: Antibacterial efficacy on treated polypropylene non-woven, modified AATCC-100; type: cell-based, Escherichia coli
Method: as §1, §2, §3

[4] = tested on: Penicillium funiculosum (DSM 1960); experiment: Fungicidal activity, European Standard EN12175 spore suspension test; type: cell-based; conditions: test conc. 1%; for log reduction P. funic.: vs water control
Method: (§5) Fungicidal activity is tested according to European Standard EN12175. A fungal spore suspension with a spore cell count of about 10^6 cfu/ml is contacted with appropriate concentrations of the specific substances (Examples) mentioned in the tables below and the residual spore cell count is determined after incubation times of 30 and 60 min at room temperature under continuous stirring. Penicillium funiculosum (DSM 1960), Aspergillus niger (DSM 1957/ATCC 6275) and Aureobasidium pullulans (DSM 2404) are tested as important mold strains. DSM refers to microorganisms obtainable under the numbers given at the DSMZ (Deutsche Sammlung von Mikroorganismen and Zellkulturen GmbH, Braunschweig, Germany). ATCC numbers refer to organisms obtainable from the American Type Culture Collection (see Example 6). The results are given as a log reduction at each incubation time in comparison to a water control in table (d): […]

[5] = tested on: Aureobasidium pullulans (DSM 2404); experiment: as above; type: cell-based; conditions: test conc. 1%; for log reduction A. pull.: vs water control
Method: as §5

[6] = tested on: Aspergillus niger (DSM 1957/ATCC 6275); experiment: as above; type: cell-based; conditions: test conc. 1%; for log reduction A. niger: vs water control
Method: as §5

[7] = 1% in EtOH (ethanolic stock solution), 5 min
[8] = 1% in EtOH (ethanolic stock solution), 30 min
[9] = 1% in H2O (stock solution in water), 5 min
[10] = 1% in H2O (stock solution in water), 30 min
[11] = test concentration 1%, 5 min, vs water control
[12] = test concentration 1%, 30 min, vs water control
[13] = test concentration 1000 ppm, 5 min
[14] = test concentration 1000 ppm, 30 min

SMILES: C[Si]1(CCCC(CC(=O)O)C(=O)O)O[Si](C)(CCCC(CC(=O)O)C(=O)O)O[Si](C)(CCCC(CC(=O)O)C(=O)O)O[Si](C)(CCCC(CC(=O)O)C(=O)O)O1 (centres unmarked) [Example 1]
- activity against S. aureus (in words) (S. aureus ATCC 6538; applied at 2%): full activity
- activity against S. aureus (in words) (S. aureus ATCC 6538; non-woven treated with 1%): some but inconsistent activity
- S. aureus cell count, 24 hours (S. aureus ATCC 6538; polypropylene nonwoven treated with 2% solution, 24 hours at 37° C.): <100 cfu/sample
- E. coli cfu/mL [1, 7]: 1.37E+06 cfu/mL
- log reduction E. coli [1, 7]: 1.2
- E. coli cfu/mL [1, 8]: 0.00E+00 cfu/mL
- log reduction E. coli [1, 8]: >5
- E. coli cfu/mL [1, 9]: 4.62E+06 cfu/mL and 5.03E+06 cfu/mL
- log reduction E. coli [1, 9]: <1
- E. coli cfu/mL [1, 10]: 1.97E+06 cfu/mL and 2.09E+06 cfu/mL
- log reduction E. coli [1, 10]: 1.1
- E. coli cfu/mL (residual cell count) ([1]; test concentration 1%, 5 min): 0.00E+00 cfu/mL
- log reduction E. coli [1, 11]: >5
- E. coli cfu/mL (residual cell count) ([1]; test concentration 1%, 30 min): 0.00E+00 cfu/mL
- log reduction E. coli [1, 12]: >5
- S. aureus cfu/mL [2, 7]: 3.45E+06 cfu/mL
- log reduction S. aureus [2, 7]: 1
- S. aureus cfu/mL [2, 8]: 1.10E+04 cfu/mL
- log reduction S. aureus [2, 8]: 3.3
- S. aureus cfu/mL [2, 9]: 6.98E+06 cfu/mL and 8.19E+06 cfu/mL
- log reduction S. aureus [2, 9]: <1
- S. aureus cfu/mL [2, 10]: 9.55E+05 cfu/mL and 1.12E+06 cfu/mL
- log reduction S. aureus [2, 10]: 1.3
- S. aureus cfu/mL (residual cell count) ([2]; test concentration 1%, 5 min): 1.20E+04 cfu/mL
- log reduction S. aureus [2, 11]: 3.1
- S. aureus cfu/mL (residual cell count) ([2]; test concentration 1%, 30 min): 0.00E+00 cfu/mL
- log reduction S. aureus [2, 12]: >5
- results on PMMA (adhesion; untreated PMMA = 100% adhesion) [3]: 85%
- activity against E. coli (in words) (E. coli ATCC 10536; applied at 2%): high activity
- activity against E. coli (in words) (E. coli ATCC 10536; non-woven treated with 1%): no activity
- P. funic. cfu/mL (residual spore cell count) ([4]; 30 min): 4.0E+06 cfu/mL
- log reduction P. funic. ([4]; 30 min): <1
- P. funic. cfu/mL (residual spore cell count) ([4]; 1 h): 3.8E+06 cfu/mL
- log reduction P. funic. ([4]; 1 h): <1
- A. pull. cfu/mL (residual spore cell count) ([5]; 30 min): 2.1E+05 cfu/mL
- log reduction A. pull. ([5]; 30 min): <1
- A. pull. cfu/mL (residual spore cell count) ([5]; 1 h): 2.2E+05 cfu/mL
- log reduction A. pull. ([5]; 1 h): <1
- A. niger cfu/mL (residual spore cell count) ([6]; 30 min): 1.1E+06 cfu/mL
- log reduction A. niger ([6]; 30 min): <1
- A. niger cfu/mL (residual spore cell count) ([6]; 1 h): 1.2E+06 cfu/mL
- log reduction A. niger ([6]; 1 h): <1

SMILES: C[Si]1(CCCP(=O)(O)O)O[Si](C)(CCCP(=O)(O)O)O[Si](C)(CCCP(=O)(O)O)O[Si](C)(CCCP(=O)(O)O)O1 (centres unmarked) [Example 2]
- E. coli cfu/mL [1, 13]: 1.50E+04 cfu/mL
- log reduction E. coli [1, 13]: 3.2
- E. coli cfu/mL [1, 14]: 0.00E+00 cfu/mL
- log reduction E. coli [1, 14]: >5
- S. aureus cfu/mL [2, 13]: 1.42E+03 cfu/mL
- log reduction S. aureus [2, 13]: 4.3
- S. aureus cfu/mL [2, 14]: 0.00E+00 cfu/mL
- log reduction S. aureus [2, 14]: >5

SMILES: C[Si](C)(C)O[Si](C)(C)O[Si](C)(CCCC(CC(=O)O)C(=O)O)O[Si](C)(C)C (centres unmarked) [Example 4]
- E. coli cfu/mL (residual cell count) ([1]; test concentration 1%, 5 min): 1.03E+05 cfu/mL
- log reduction E. coli [1, 11]: 2.3
- E. coli cfu/mL (residual cell count) ([1]; test concentration 1%, 30 min): 0.00E+00 cfu/mL
- log reduction E. coli [1, 12]: >5
- S. aureus cfu/mL (residual cell count) ([2]; test concentration 1%, 5 min): 3.22E+06 cfu/mL
- log reduction S. aureus [2, 11]: <1
- S. aureus cfu/mL (residual cell count) ([2]; test concentration 1%, 30 min): 1.67E+04 cfu/mL
- log reduction S. aureus [2, 12]: 2.9
- results on PMMA (adhesion; untreated PMMA = 100% adhesion) [3]: 46%
- P. funic. cfu/mL (residual spore cell count) ([4]; 30 min): 4.8E+05 cfu/mL
- log reduction P. funic. ([4]; 30 min): 1.0
- P. funic. cfu/mL (residual spore cell count) ([4]; 1 h): 1.14E+05 cfu/mL
- log reduction P. funic. ([4]; 1 h): 1.6
- A. pull. cfu/mL (residual spore cell count) ([5]; 30 min): 1.3E+05 cfu/mL
- log reduction A. pull. ([5]; 30 min): <1
- A. pull. cfu/mL (residual spore cell count) ([5]; 1 h): 9.0E+04 cfu/mL
- log reduction A. pull. ([5]; 1 h): <1
- A. niger cfu/mL (residual spore cell count) ([6]; 30 min): 1.5E+04 cfu/mL
- log reduction A. niger ([6]; 30 min): 2.0
- A. niger cfu/mL (residual spore cell count) ([6]; 1 h): 1.3E+04 cfu/mL
- log reduction A. niger ([6]; 1 h): 2.1

SMILES: C[Si](C)(CCCC(CC(=O)O)C(=O)O)O[Si](C)(C)O[Si](C)(C)O[Si](C)(C)O[Si](C)(C)O[Si](C)(C)O[Si](C)(C)O[Si](C)(C)O[Si](C)(C)O[Si](C)(C)O[Si](C)(C)O[Si](C)(C)CCCC(CC(=O)O)C(=O)O (centres unmarked) [Example 5]
- E. coli cfu/mL (residual cell count) ([1]; test concentration 1%, 5 min): 1.54E+07 cfu/mL
- log reduction E. coli [1, 11]: <1
- E. coli cfu/mL (residual cell count) ([1]; test concentration 1%, 30 min): 3.58E+06 cfu/mL
- log reduction E. coli [1, 12]: <1
- S. aureus cfu/mL (residual cell count) ([2]; test concentration 1%, 5 min): 1.34E+07 cfu/mL
- log reduction S. aureus [2, 11]: <1
- S. aureus cfu/mL (residual cell count) ([2]; test concentration 1%, 30 min): 7.86E+06 cfu/mL
- log reduction S. aureus [2, 12]: <1
- results on PMMA (adhesion; untreated PMMA = 100% adhesion) [3]: 50%
- P. funic. cfu/mL (residual spore cell count) ([4]; 30 min): 2.5E+06 cfu/mL
- log reduction P. funic. ([4]; 30 min): <1
- P. funic. cfu/mL (residual spore cell count) ([4]; 1 h): 2.7E+06 cfu/mL
- log reduction P. funic. ([4]; 1 h): <1
- A. pull. cfu/mL (residual spore cell count) ([5]; 30 min): 3.5E+05 cfu/mL
- log reduction A. pull. ([5]; 30 min): <1
- A. pull. cfu/mL (residual spore cell count) ([5]; 1 h): 3.4E+05 cfu/mL
- log reduction A. pull. ([5]; 1 h): <1
- A. niger cfu/mL (residual spore cell count) ([6]; 30 min): 7.0E+05 cfu/mL
- log reduction A. niger ([6]; 30 min): <1
- A. niger cfu/mL (residual spore cell count) ([6]; 1 h): 6.0E+05 cfu/mL
- log reduction A. niger ([6]; 1 h): <1
